Legend:
[1] = acute toxicity by the Weil method; settings: in vivo, mouse, read-out: LD₅₀
Text: The acute toxicity of the compound of formula (I) was studied on the mouse by the Weil method [Weil C.S. Biometr. 8, 249 (1952)].

rat = assay: olive oil-induced alteration of lipoprotein state, plasma cholesterol and triglycerides; type: in vivo; settings: normally fed rat treated orally with 15 ml/kg of olive oil; greatest effect two hours after the olive oil treatment
Procedure: The effect of the compound in terms of modifying the lipoprotein state and the plasma cholesterol and triglyceride levels, altered by oral administration of olive oil, was studied in normally fed rat treated orally with 15 ml/kg of olive oil at various concentrations.

With `CC(=O)OCC(COP(=O)(O)OCCN)OC(C)=O` (centres unmarked) [compound of formula (I), O-(1,2-di-O-acetylglycero-3-phosphoryl)ethanolamine] the LD50 [1] was over 2000 mg/kg and the “effect on increase in triglycerides and cholesterol, reduction in the α-lipoproteins and increase in the β and pre-β fractions” value (rat) was “well antagonised by the compound, which proved able to return the parameters to normality”.
